From US20020028248A1, “RAPID-RELEASE MICRODISPERSIBLE ECADOTRIL PREPARATION” (priority 1996, published 2002)
Where two headings read alike, the source gives them in different places.

Assays:
[1] = Dissolution test (in vitro test), paddle method; type: physicochemical; conditions: 100 mg of the preparation, distilled water 900 ml, 37° C.
Experimental: (2) Dissolution test (in vitro test) Apparatus: Dissolution test machine in accordance with The 12th revised Japanese Pharmacopoeia using the paddle method a stirring speed 100 rpm. Test solution: Distilled water 900 ml, 37° C. Collection of solution: Eluates are collected 5, 10, 15, 30, 45, and 60 minutes after the commencement of dissolution, and the respective eluates are filtrated through […] 13; Kento Chemical Co., Ltd.) aqueous filter (0.22 μm). Then, about 1.5 ml each of the filtrates is collected. One milliliter of this filtrate or standard solution is mixed with 1 ml of internal standard, and 25 μl of the mixed solution is injected to HPLC.

[2] = Solubility of Ecadotril in water; type: physicochemical; conditions: 37 °C
Text: Ecadotril (N-[(S)-α-(mercaptomethyl)hydrocinnamoyl]glycine, benzyl ester, acetate(ester); N-[(S)-α-(acetylthiomethyl)hydrocinnamoyl]glycine, benzyl ester) is an enkephalinase inhibitor used as a hypotensive drug, a cardiac insufficiency therapeutic drug, or the like. […] Therefore, when formulated into tablets, capsules, or the like by conventional methods, sufficient absorbability of Ecadotril in the digestive tract cannot be obtained because of low dispersibility of drug particles. Thus, a preparation of Ecadotril with improved bioavailability, in particular a tablet with high content, has been demanded. Generally, it is known that in order to obtain sufficient absorbability of such water-insoluble drugs, the solubility (dissolving rate) of the drugs is enhanced. For example, Japanese Laid-Open Patent Publication No. 7-76516 discloses a method for spray drying dispersions in which finely ground drug particles and a hydrophilic excipient are dispersed in water. However, according to this method, when powder to be obtained is formulated into tablets, there is a possibility that drug particles come into close contact with each other thereby decreasing the disintegration property and absorbability of the preparation. Furthermore, in the case where water-insoluble drugs such as Ecadotril with a low melting point and high plasticity are used, particles are likely to aggregate. […]

maximum dissolution amount in the present test [1]: about 30% | solubility ([2]; read-out: solubility in water): ~33 µg/mL | solubility ([2]; read-out: solubility of Ecadotril in water): 33 µg/mL
SMILES: CC(=O)SC[C@@H](Cc1ccccc1)C(=O)NCC(=O)OCc1ccccc1 [Ecadotril, N-[(S)-α-(mercaptomethyl)hydrocinnamoyl]glycine, benzyl ester, acetate(ester)]
